By IC50 is commonly meant the concentration at which inhibition is half-maximal.

Active and inactive are the calls of the source. The rule behind the calls is not given here.

Experimental findings from ChEMBL document CHEMBL1795277, “Synthesis of novel pyrazolo[1,5-a]pyrazin-4(5H)-one derivatives and their inhibition against growth of A549 and H322 lung cancer cells” (Bioorg Med Chem Lett, 2011) are described below.

Type in all cases: functional, cell-based
In assay [1] the test system is NCI-H322. In words: Cytotoxicity against human NCI-H322 cells assessed as reduction of total cell quantity at 40 uM after 48 hrs by inverted microscopic analysis.
The subject of assay [2] is A549. Description: Cytotoxicity against human A549 cells assessed as cell growth inhibition after 48 hrs by SRB assay. The conditions noted are these: for IC50: A549, 48 h.
In assay [3] the test system is A549. Description: Induction morphological changes in human A549 cells at 40 uM after 48 hrs by inverted microscopic analysis.
The test system of assay [4] is A549. In words: Induction necrosis in human A549 cells at 40 uM after 48 hrs by LDH release assay. Background: LDH leaks from cells whose membrane has failed.
For assay [5], the system named is NCI-H322. Description: (§1) Cytotoxicity against human NCI-H322 cells assessed as cell growth inhibition after 48 hrs by SRB assay. In general terms: In SRB staining, fixed cells bind dye roughly in proportion to their protein.
The nature of assay [6]: as §1. The note with it: NCI-H322, 48 h.
Assay [7] has as its system NCI-H322. Description: Induction necrosis in human NCI-H322 cells at 40 uM after 48 hrs by LDH release assay.
Assay [8] deals with A549. Description: Cytotoxicity against human A549 cells assessed as cell growth inhibition at 40 uM after 48 hrs by SRB assay.
Assay [9] has as its system NCI-H322. In words: Cytotoxicity against human NCI-H322 cells assessed as cell growth inhibition at 40 uM after 48 hrs by SRB assay.
The test system of assay [10] is NCI-H322. Description: Induction morphological changes in human NCI-H322 cells at 40 uM after 48 hrs by inverted microscopic analysis.
For assay [11], the system named is A549. Description: Cytotoxicity against human A549 cells assessed as reduction of total cell quantity at 40 uM after 48 hrs by inverted microscopic analysis.

Consider `O=c1c2cc(-c3ccccc3)nn2cc(-c2ccccc2)n1CCOCCO`, for which the outcome in the assay on NCI-H322 [1], in the assay on A549 [3], with NCI-H322 [10] and in the assay with A549 [11] was Active. In addition, the “growth inhibition (GI)” value in the assay with A549 [2] and in the assay with NCI-H322 [5] was “Dose-dependent effect” each time. Besides, the IC50 with A549 [2] is 41.1 µM; in [6], 45.6 µM. Moreover, the outcome in the assay on A549 [4] and in the assay with NCI-H322 [7] was inactive. The “growth inhibition (GI)” value in the assay on A549 [8] and in the assay with NCI-H322 [9] was “Active” each time.
`COc1ccc(-c2cc3c(=O)n(CCOCCO)c(-c4ccccc4)cn3n2)cc1`: the half-maximal inhibitory concentration (IC50) in the assay with A549 [2] is 50.3 µM; in assay [6] it was 68.7 µM. Besides, the “growth inhibition (GI)” value with A549 [8] and in the assay with NCI-H322 [9] was “Active” in each case.
With `COc1ccc(-c2cc3c(=O)n(CCOCCO)c(-c4ccc(Cl)cc4)cn3n2)cc1`, the 50% inhibitory concentration (IC50) in the assay with A549 [2] is 49.7 µM; in [6], 76.9 µM. The “growth inhibition (GI)” value in the assay on A549 [8] and with NCI-H322 [9] was “Active” throughout.
Consider `COc1ccc(-c2cc3c(=O)n(CCOCCO)c(-c4ccc(OC)cc4)cn3n2)cc1`, for which the outcome with NCI-H322 [1], in the assay on A549 [3], in the assay on NCI-H322 [10] and with A549 [11] was Active. The “growth inhibition (GI)” value with A549 [2] and with NCI-H322 [5] was “Dose-dependent effect” in each case. Further, the values for the IC50 (in the assay on A549 [2]; in assay [6]) were 34.7 µM and 50.6 µM, respectively. Moreover, the result with A549 [4] and with NCI-H322 [7] was inactive. Besides, the “growth inhibition (GI)” value with A549 [8] and with NCI-H322 [9] was “Active” in each case.
Turning to `O=c1c2cc(-c3ccccc3)nn2cc(-c2ccc(Cl)cc2)n1CCOCCO`, the IC50 in the assay on A549 [2] came to 62.6 µM; in assay [6], 91 µM. Further, the “growth inhibition (GI)” value in the assay with A549 [8] and in the assay with NCI-H322 [9] was “Active” in each case.
Consider `COc1ccc(-c2cn3nc(-c4ccccc4)cc3c(=O)n2CCOCCO)cc1`, for which the IC50 came out at 59 µM with A549 [2] and 74.7 µM in [6]. For the same compound, the “growth inhibition (GI)” value in the assay on A549 [8] and in the assay on NCI-H322 [9] was “Active” in each case.
`O=c1c2cc(-c3ccc(Cl)cc3)nn2cc(-c2ccccc2)n1CCOCCO`: the result in the assay with NCI-H322 [1], with A549 [3], with NCI-H322 [10] and in the assay with A549 [11] was Active. In addition, the “growth inhibition (GI)” value with A549 [2] and with NCI-H322 [5] was “Dose-dependent effect” in each case. Besides, the IC50 in the assay on A549 [2] came out at 24.2 µM; in assay [6], 29.4 µM. Further, the outcome in the assay with A549 [4] and with NCI-H322 [7] was inactive. The “growth inhibition (GI)” value in the assay on A549 [8] and with NCI-H322 [9] was “Active” each time.
